Assay results from patent publication US20240400584A1, “COMPOUNDS AND METHODS FOR MODULATING SPLICING” (REMIX THERAPEUTICS INC., priority 2021, published 2024).

Assays:
MYB = experiment: RT-qPCR splicing assay, MYB AJ/CJ mRNA; assay type: cell-based; settings: Homo sapiens, A673 or K562 cells, 24 hours; for IC50: decrease in canonical junction mRNA; for AC50: increase in alternative junction mRNA
Summary of the method: (§1)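 Cells: A673 (DMEM/10% FBS) or K562 (IMDM/10% FBS). Dosing: 11-pt 3-fold, top 10 uM final, DMSO ≤0.25%, 24 h, 37° C. Readout: one-step RT-qPCR on lysate, CJ vs AJ isoforms; ΔCt vs housekeeper, ΔΔCt vs DMSO, 2^(−ΔΔCt) RQ → % response.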

SMN2 = experiment: Gene panel canonical junction qPCR assay, SMN2 CJ mRNA (Table 7); assay type: cell-based; settings: Homo sapiens, read-out: SMN2 CJ mRNA decrease IC50
Summary of the method: (§2)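 A673 or K562 cells treated with compound; canonical exon-junction mRNA measured by RT-qPCR with junction-spanning primers/probe, normalised to GAPDH, GUSB or PPIA and DMSO (ΔΔCt, RQ). Percentage response set from fixed ΔCt assay windows, fitted to a 4-parameter logistic; IC50 is concentration giving 50% CJ decrease.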

HTT [1] = experiment: RT-qPCR splicing assay, HTT AJ/CJ mRNA; assay type: cell-based, human; settings: Homo sapiens, 24 h, A673 or K562 cells; for IC50: decrease in canonical junction mRNA; for AC50: increase in alternative junction mRNA
Summary of the method: as §1

Target C = experiment: Gene panel canonical junction qPCR assay, Target C CJ mRNA (Table 7); assay type: cell-based, human; settings: Homo sapiens, read-out: Target C CJ mRNA decrease IC50
Summary of the method: as §2

HTT [2] = experiment: Gene panel canonical junction qPCR assay, HTT CJ mRNA (Table 7); assay type: cell-based, human; settings: Homo sapiens, read-out: HTT CJ mRNA decrease IC50
Summary of the method: as §2

| SMILES | IC50 (MYB) [nM] | AC50 (MYB) [nM] | IC50 (SMN2) [nM] | IC50 (HTT [1]) [nM] | AC50 (HTT [1]) [nM] | IC50 (Target C) [nM] | IC50 (HTT [2]) [nM] |
| --- | --- | --- | --- | --- | --- | --- | --- |
| CN(c1cnc2c(n1)OCc1cc(-c3cn[nH]c3)ccc1-2)[C@@H]1C[C@H]2CC[C@@H](C1)N2 [Compound 144] | 100 to 1000 | 100 to 1000 | > 10000 | 100 to 1000 | 100 to 1000 | 100 to 1000 | 100 to 1000 |
| CN(c1ccc2c(n1)OCCc1cc(-c3cn[nH]c3)ccc1-2)C1CC(C)(C)NC(C)(C)C1 [Compound 145] | 1000 to 10000 | > 10000 | 1000 to 10000 | > 10000 | > 10000 | 1000 to 10000 | > 10000 |
| CN(c1ccc2c(n1)OCCc1cc(-c3cn[nH]c3)ccc1-2)[C@@H]1C[C@H]2CC[C@@H](C1)N2 [Compound 146] | > 10000 | > 10000 | > 10000 | 1000 to 10000 | 1000 to 10000 | > 10000 | 1000 to 10000 |
| CN(c1ccc2c(n1)OCc1cc(-c3cn[nH]c3)ccc1-2)C1CC(C)(C)NC(C)(C)C1 [Compound 147] | 1000 to 10000 | 1000 to 10000 | > 10000 | 100 to 1000 | 100 to 1000 | 100 to 1000 | 100 to 1000 |
| CN(c1ccc2c(n1)OCc1cc(-n3cccn3)ccc1-2)C1CC(C)(C)NC(C)(C)C1 [Compound 148] | 1000 to 10000 | 1000 to 10000 | 100 to 1000 | 1000 to 10000 | 1000 to 10000 | 1000 to 10000 | 1000 to 10000 |
| CN(c1ccc2c(n1)OCc1cc(-n3cccn3)ccc1-2)[C@@H]1C[C@H]2CC[C@@H](C1)N2 [Compound 149] | 100 to 1000 | 100 to 1000 | 100 to 1000 | 100 to 1000 | < 100 | 100 to 1000 | 100 to 1000 |
| CN(c1ccc2c(n1)OCc1cc(-n3nccn3)ccc1-2)[C@@H]1C[C@H]2CC[C@@H](C1)N2 [Compound 151] | 100 to 1000 | 100 to 1000 | < 100 | < 100 | < 100 | 100 to 1000 | < 100 |
| CN(c1ccc2c(n1)OCc1cc(-n3ccnn3)ccc1-2)[C@@H]1C[C@H]2CC[C@@H](C1)N2 [Compound 152] | 100 to 1000 | 100 to 1000 | < 100 | 100 to 1000 | < 100 | 100 to 1000 | 100 to 1000 |
| CN(c1ccc2c(n1)OCc1cc(-c3ccn(C)c(=O)c3)ccc1-2)[C@@H]1C[C@H]2CC[C@@H](C1)N2 [Compound 153] | 100 to 1000 | < 100 | < 100 | < 100 | < 100 | < 100 | < 100 |
| Cc1[nH]ncc1-c1ccc2c(c1)COc1nc(N(C)[C@@H]3C[C@H]4CC[C@@H](C3)N4)ccc1-2 [Compound 154] | 100 to 1000 | < 100 | 100 to 1000 | 100 to 1000 | 100 to 1000 | 100 to 1000 | 100 to 1000 |
| Cc1ncc(-c2ccc3c(c2)COc2nc(N(C)[C@@H]4C[C@H]5CC[C@@H](C4)N5)ccc2-3)o1 [Compound 155] | 100 to 1000 | 100 to 1000 | < 100 | < 100 | < 100 | 100 to 1000 | < 100 |
| COc1cc(-c2ccc3c(c2)COc2nc(N(C)[C@@H]4C[C@H]5CC[C@@H](C4)N5)ccc2-3)ccn1 [Compound 156] | 100 to 1000 | 100 to 1000 | 100 to 1000 | < 100 | < 100 | 100 to 1000 | < 100 |
| CN(c1ccc2c(n1)OCc1cc(-c3ccc(=O)[nH]c3)ccc1-2)[C@@H]1C[C@H]2CC[C@@H](C1)N2 [Compound 157] | 1000 to 10000 | 1000 to 10000 | 100 to 1000 | 1000 to 10000 | 1000 to 10000 | 1000 to 10000 | 1000 to 10000 |
| CN(c1ccc2c(n1)OCc1cc(-c3ccc(=O)n(C)c3)ccc1-2)[C@@H]1C[C@H]2CC[C@@H](C1)N2 [Compound 158] | 100 to 1000 | 1000 to 10000 | 100 to 1000 | 100 to 1000 | 100 to 1000 | 100 to 1000 | 100 to 1000 |
| c1cc2c(cc1-c1cn[nH]c1)COc1nc(N3CCC34CCNC4)ccc1-2 (stereo not drawn) [Compound 207] | 1000 to 10000 | 100 to 1000 | > 10000 |  |  | > 10000 | > 10000 |
| Cc1ncc(-c2ccc3c(c2)COc2nc(O[C@@H]4C[C@H]5C[C@@H](C4)N5)ccc2-3)s1 [Compound 208] | 100 to 1000 | 100 to 1000 | < 100 |  |  | 100 to 1000 | < 100 |
